Substitutions are numbered along the chain they refer to. Ends that are not written are not given here.
Key:
Format in all cases: cell-based
[1] = molecular target: T1, GALR3 septuple (Homo sapiens, UniProt O60755, A190V/A191F/C272L/G192S/L100F/Y103F/Y107H); test: SRE-luc luciferase assay, GALR3 septuple mutant; conditions: SRE-luc in HEK293 Gqi cells, ligand 6 h, mean ± SE, SEM
T1 construct: expressed in transfected cells; host or cells: HEK293 cells stably expressing pGlosensor-22F cAMP plasmid
T1 sequence (O60755 1-368 L100F/Y103F/Y107H/A190V/A191F/G192S/C272L): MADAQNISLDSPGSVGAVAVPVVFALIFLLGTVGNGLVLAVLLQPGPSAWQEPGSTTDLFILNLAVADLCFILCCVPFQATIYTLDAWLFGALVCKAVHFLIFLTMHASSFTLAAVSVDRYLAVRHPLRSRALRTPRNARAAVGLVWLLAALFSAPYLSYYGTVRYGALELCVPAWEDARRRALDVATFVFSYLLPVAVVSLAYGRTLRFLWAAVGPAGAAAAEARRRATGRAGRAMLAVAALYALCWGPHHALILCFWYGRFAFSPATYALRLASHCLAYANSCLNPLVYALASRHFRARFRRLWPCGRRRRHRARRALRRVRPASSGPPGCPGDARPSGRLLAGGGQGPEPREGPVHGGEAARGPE
Text: For domain swapping between GALR2 and GALR3, individual cDNA fragments of interest were amplified by polymerase chain reaction (PCR) with Pfu polymerase (ELPIS Biotech, Daejeon, Korea) and two specific primers, one corresponding to the 5' or 3' end of the GALR2 or GALR3 cDNA and the other to the region of overlap between the two receptors. The two resulting fragments, one from GALR2 and the other from GALR3, were subjected to a second round of PCR to generate the chimeric cDNAs. To construct single, double-, triple-, pentuple-, hextuple-, and septuple-mutant receptors, amino acids of GALR3 were substituted for the amino acids at the corresponding positions in GALR2 using PCR-based site-directed mutagenesis. […]
For luciferase assays, HEK293 Gqi cells were seeded on 48-well plates at a density of 2.5 × 10^4 cells/well one day before transfection. […] The luciferase activity in 50 μl cell extract was determined using a luciferase assay system according to the standard protocol for the Synergy 2 Multi-Mode Microplate Reader (BioTek, Winooski, VT, USA).
(§1) Data analysis was performed by non-linear regression with a sigmoidal dose-response curve. The concentrations of agonists that induced half-maximal stimulation (EC50) were calculated using the GraphPad PRISM5 software (GraphPad software, Inc., San Diego, CA). […]

[2] = molecular target: T1, GALR3 septuple; test: cAMP assay (inhibition of forskolin-induced cAMP), GALR3 septuple mutant; conditions: Glosensor-22F cAMP HEK293 cells, agonist 10 min then forskolin 10 μM, mean ± SE, SEM
Procedure: SPX-induced or Qu-SPX-induced cyclic adenosine monophosphate (cAMP) mobilization was measured in HEK293 cells stably expressing the pGlosensor^TM-22F cAMP plasmid (Promega Corp., Madison, WI, USA). The Glosensor-22F cAMP HEK293 cells were seeded on 96-well plates at a density of 2.0 × 10^4 cells/well 24 h before transfection. A mixture including 100 ng expression plasmid and lipofectamine 2000 reagent in diluted Opti-MEM (Gibco) was incubated at room temperature for 20 min. The mixtures were added into each well according to the manufacturer's instructions (Invitrogen, CA, USA). After 48 h, Glosensor cAMP substrates were added to the transfected cells in CO2-independent media. After 2 h, the cells were incubated with a range of agonist concentrations or vehicle for 10 min and then exposed to foskolin (10 μM). Luminescence was measured for up to 30 min using a Microplate Reader (BioTek, Winooski, VT, USA).
as §1, with “CA). All data are presented as the mean ± standard error (SE) of at least three independent experiments.” for “CA).”

[3] = molecular target: T2, human GALR2 (Homo sapiens, UniProt O43603); test: SRE-luc luciferase assay, WT GALR2; conditions: SRE-luc in HEK293 Gqi cells, ligand 6 h, mean ± SE, at least three independent experiments, SEM
T2 construct: host or cells: HEK293 cells stably expressing Gqi
T2 sequence (O43603 1-387): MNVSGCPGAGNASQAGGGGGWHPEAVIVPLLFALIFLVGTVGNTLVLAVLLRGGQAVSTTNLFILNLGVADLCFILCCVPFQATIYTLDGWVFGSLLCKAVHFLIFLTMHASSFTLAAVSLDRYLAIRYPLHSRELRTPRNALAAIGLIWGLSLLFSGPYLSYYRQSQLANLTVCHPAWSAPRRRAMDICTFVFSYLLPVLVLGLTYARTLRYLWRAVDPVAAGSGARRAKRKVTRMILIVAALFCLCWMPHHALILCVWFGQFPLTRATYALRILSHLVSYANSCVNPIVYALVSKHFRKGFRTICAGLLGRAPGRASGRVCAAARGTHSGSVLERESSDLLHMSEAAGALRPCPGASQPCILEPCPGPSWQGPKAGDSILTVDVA
Text: (§2) The pcDNA3.1 vector was purchased from Invitrogen (San Diego, CA, USA). The serum response element (SRE)-luciferase (SRE-luc) vector containing a single copy of the SRE (CCATATTAGG) conjugated with luciferase was purchased from Stratagene (La Jolla, CA, USA). The cDNAs for human GALR1, GALR2, and GALR3 were obtained from BRN SCIENCE, Inc. The cDNAs were inserted into the EcoRⅠ and XhoⅠ sites of pcDNA3.1.
(§3) HEK293 cells stably expressing the Gqi construct, which allows induction of Gq-dependent signaling pathways upon activation of a Gi-coupled receptor [14, 30], were maintained in Dulbecco's Modified Eagle's Medium (DMEM) in the presence of 10% fetal bovine serum and 1% penicillin and streptomycin. For all transfections, 200 ng DNA (100 ng receptor and 100 ng SRE-luc) mixed with lipofectamine 2000 was applied to 60–80% confluent cells on a multi-well plate according to the manufacturer's instructions (Invitrogen, Carlsbad, CA).
(§4) For luciferase assays, HEK293 Gqi cells were seeded on 48-well plates at a density of 2.5 × 10^4 cells/well one day before transfection. A mixture including 100 ng SRE-luc reporter construct, 100 ng expression plasmid, and lipofectamine 2000 reagent in diluted Opti-MEM (Gibco) was incubated at room temperature for 20 min and then added into each well according to the manufacturer's instructions (Invitrogen, CA, USA). Before exposure to the ligands, the cells were maintained in serum-free DMEM for 16–18 h. Approximately 48 h after transfection, the cells were treated with ligand for 6 h. The cells were then lysed by the addition of 100 μl lysis buffer. The luciferase activity in 50 μl cell extract was determined using a luciferase assay system according to the standard protocol for the Synergy 2 Multi-Mode Microplate Reader (BioTek, Winooski, VT, USA).
(§5) Data analysis was performed by non-linear regression with a sigmoidal dose-response curve. The concentrations of agonists that induced half-maximal stimulation (EC50) were calculated using the GraphPad PRISM5 software (GraphPad software, Inc., San Diego, CA). All data are presented as the mean ± standard error (SE) of at least three independent experiments.

[4] = molecular target: T3, GALR3 single mutant C^272L (Homo sapiens, UniProt O60755, C272L); test: SRE-luc luciferase assay, GALR3 C272L; conditions: GALR3 C^272L; SRE-luc in HEK293 Gqi cells, ligand 6 h; mean ± S.E.; SEM
T3 construct: expressed in transfected cells; host or cells: HEK293 cells stably expressing Gqi
T3 sequence (O60755 whole entry C272L): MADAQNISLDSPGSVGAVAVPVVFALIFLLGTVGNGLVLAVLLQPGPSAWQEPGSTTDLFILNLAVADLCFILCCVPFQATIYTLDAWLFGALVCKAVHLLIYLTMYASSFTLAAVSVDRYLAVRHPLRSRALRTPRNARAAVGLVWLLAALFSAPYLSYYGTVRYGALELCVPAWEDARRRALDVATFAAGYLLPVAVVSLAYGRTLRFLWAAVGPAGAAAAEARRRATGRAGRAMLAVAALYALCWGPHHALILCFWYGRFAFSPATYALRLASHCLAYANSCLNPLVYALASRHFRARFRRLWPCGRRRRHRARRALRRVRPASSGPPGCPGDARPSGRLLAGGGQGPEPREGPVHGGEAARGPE
Text: (§6) For domain swapping between GALR2 and GALR3, individual cDNA fragments of interest were amplified by polymerase chain reaction (PCR) with Pfu polymerase (ELPIS Biotech, Daejeon, Korea) and two specific primers, one corresponding to the 5' or 3' end of the GALR2 or GALR3 cDNA and the other to the region of overlap between the two receptors. The two resulting fragments, one from GALR2 and the other from GALR3, were subjected to a second round of PCR to generate the chimeric cDNAs. To construct single, double-, triple-, pentuple-, hextuple-, and septuple-mutant receptors, amino acids of GALR3 were substituted for the amino acids at the corresponding positions in GALR2 using PCR-based site-directed mutagenesis. All of the chimeric constructs were cloned into the pcDNA3 expression vector at HindⅢ and XbaⅠ sites. The DNA sequences of the chimeras were verified by automatic sequencing. […] The luciferase activity in 50 μl cell extract was determined using a luciferase assay system according to the standard protocol for the Synergy 2 Multi-Mode Microplate Reader (BioTek, Winooski, VT, USA). […] The concentrations of agonists that induced half-maximal stimulation (EC50) were calculated using the GraphPad PRISM5 software (GraphPad software, Inc., San Diego, CA). […]

[5] = molecular target: T4, GALR3 (Homo sapiens, UniProt O60755); test: SRE-luc luciferase assay, WT GALR3; set-up: host or cells: HEK293 cells stably expressing Gqi; conditions: SRE-luc in HEK293 Gqi cells, ligand 6 h, mean ± SE, at least three independent experiments, SEM
T4 sequence (O60755 1-368): T1 sequence (O60755 1-368 L100F/Y103F/Y107H/A190V/A191F/G192S/C272L) with F100L, F103Y, H107Y, V190A, F191A, S192G, L272C
Text: as §2, §3, §4, §5

[6] = molecular target: T5, GALR3 single mutant F^265P (Homo sapiens, UniProt O60755); test: SRE-luc luciferase assay, GALR3 F265P; conditions: GALR3 F^265P; SRE-luc in HEK293 Gqi cells, ligand 6 h; mean ± S.E.; SEM
T5 construct: expressed in transfected cells; host or cells: HEK293 cells stably expressing Gqi
T5 sequence (O60755 whole entry F265L): as the sequence (O60755 whole entry C272L) above, with F265L, L272C counted along it
Text: as §6

[7] = molecular target: T6, GALR3 single mutant S^266T (Homo sapiens, UniProt O60755, S266T); test: SRE-luc luciferase assay, GALR3 S266T; conditions: GALR3 S^266T; SRE-luc in HEK293 Gqi cells, ligand 6 h; mean ± S.E.; SEM
T6 construct: expressed in transfected cells; host or cells: HEK293 cells stably expressing Gqi
T6 sequence (O60755 whole entry S266T): as the sequence (O60755 whole entry C272L) above, with S266T, L272C counted along it
Text: as §6

[8] = molecular target: T7, GALR3 single mutant P^267R (Homo sapiens, UniProt O60755, P267R); test: SRE-luc luciferase assay, GALR3 P267R; conditions: GALR3 P^267R; SRE-luc in HEK293 Gqi cells, ligand 6 h; mean ± S.E.; SEM
T7 construct: expressed in transfected cells; host or cells: HEK293 cells stably expressing Gqi
T7 sequence (O60755 whole entry P267R): as the sequence (O60755 whole entry C272L) above, with P267R, L272C counted along it
Text: as §6

[9] = molecular target: T8, GALR3 single mutant A^264P (Homo sapiens, UniProt O60755, A264P); test: SRE-luc luciferase assay, GALR3 A264P; conditions: GALR3 A^264P; SRE-luc in HEK293 Gqi cells, ligand 6 h; mean ± S.E.; SEM
T8 construct: expressed in transfected cells; host or cells: HEK293 cells stably expressing Gqi
T8 sequence (O60755 whole entry A264P): as the sequence (O60755 whole entry C272L) above, with A264P, L272C counted along it
Text: as §6

Row | EC50 [1] [nM] | EC50 [2] [nM] | EC50 [3] [nM] | EC50 [4] [nM] | EC50 [5] [nM] | EC50 [6] [nM] | EC50 [7] [nM] | EC50 [8] [nM] | EC50 [9] [nM] | Substance
1 | 1100 ± 163 | 794 ± 358 | 87.1 ± 19.5 | – | – | – | – | – | – | NWTPNAALYLFGPQ-NH2 [Qu-SPX]
2 | – | – | 47.9 ± 11.5 | 66.1 ± 22.4 | 490 ± 118 | 457 ± 118 | 200 ± 29.7 | 562 ± 173 | 589 ± 200 | NWTPQAMLYLFGAQ-NH2 [F^11-SPX]

From paper PMC7108740, “Exploring the molecular structures that confer ligand selectivity for galanin type II and III receptors” (PLoS ONE, 2020)
